The values that follow are results of earlier work, collected in patent US12453719B2, “Treatment method using a complex of angiotensin II receptor antagonist metabolite and NEP inhibitor” (Shenzhen Salubris Pharmaceuticals Co., Ltd., priority 2019, dated 2025).

The conditions of series [1]: arithmetic mean.
For series [2] the following is noted: single oral administration of Losartan.

SMILES strings stand for the structures. Read-outs that look alike come from different tables or passages of the source.

Consider `CCCCc1nc(Cl)c(CO)n1Cc1ccc(-c2ccccc2-c2nn[nH]n2)cc1` [Losartan], for which the “AUC Losartan” value was 391.5 ng·h/mL in series [1] (single administration of Losartan 40 mg (n = 15)); 395.0 ng·h/mL in series [1] (single administration of Losartan 50 mg (n = 12)); 932.7 ng·h/mL in series [1] (single administration of Losartan 80 mg (n = 8)); 1277.7 ng·h/mL in series [1] (single administration of Losartan 120 mg (n = 8)); 1678.0 ng·h/mL in series [1] (single administration of Losartan 150 mg (n = 8)); 2371.6 ng·h/mL in series [1] (single administration of Losartan 200 mg (n = 15)). In addition, the “AUC Losartan” value in series [1] (single administration of Losartan 250 mg (n = 7)) is 2567.3 ng·h/mL; in series [1] (single administration of Losartan 300 mg (n = 7)) it was 3492.4 ng·h/mL. In addition, the “in vivo EXP3174 exposure (AUC) relative to the prototype drug” value in series [2] is given as “about four”.
